In patent US12370236B2, “Method and combination for the suppression of COVID-19 virus” (priority 2021, dated 2025):

Tests used:
Vero E6 cells = test: Cytotoxicity assay; assay type: cell-based
Protocol: (§1) FIGS. 6A and 6B show the cytotoxicity of norvancomycin (NV) and nelfinavir (NF). The percentage of cell survival is determined by obtaining cell viability of Vero E6 cells in the presence of drugs of interest and trace amount of DMSO that help fully dissolve the drug, normalized by Vero E6 cells in the presence of the same concentration of said DMSO, which serves as a control, the cell viability in the absence of the drugs. 50% cytotoxic concentration (CC50) represents the concentration of NV and NF required to reduce cell survival by 50%.
(§2) Cytotoxicity assay was performed using Vero E6 cells described above to determine the cytotoxicity of tested compounds, i.e., norvancomycin and nelfinavir. DMSO, the solvent used to help fully dissolve the drugs of interest, was used as the negative control. The percentage of cell survival and 50% cytotoxic concentration (CC50) were derived.

Cytotoxicity assay = assay type: cell-based; conditions: African green monkey, Vero E6 cells
Protocol: as §1, §2

[1] = tested on: SARS-CoV2 hCoV-19/Taiwan/NTU13/2020; test: Plaque reduction assay in Vero E6 cells; assay type: cell-based
3CL^pro = target: T1, 3CL^pro (Severe acute respiratory syndrome coronavirus 2, UniProt P0DTD1); test: FRET-based 3CL^pro enzyme activity assay; assay type: biochemical, SARS-CoV2
T1 construct: A 3CL^pro (Cat. #78042-1) assay kit (BPS Bioscience, CA, USA) was used; purchased BPS Bioscience 78042-1
Protocol: FIG. 1 is a scheme of the fluorogenic 3CL^pro protease enzymatic assay. The fluorescence of Edans in the C-terminal of the peptide substrate (Dabcyl-[…]-Edans, the cleavage site is in between the amino acids Q and S) is quenched by the Dabcyl in the N-terminus without the 3CL^pro enzymatic cleavage. After the protease is added and cleaves the peptide substrate, the quencher molecule Dabcyl can no longer quench the fluorophore Edans which results in an increase in fluorescence emission at 460 nm. The intensity of this fluorescence is proportional to the protease activity. FRET: fluorescence resonance energy transfer.
3CL^pro inhibition percentage of different test groups is determined by “(Isubstrate+3CLpro−Itest_group)/(Isubstrate+3CLpro−Isubstrate)×100%, where “I” is the observed intensity of blue fluorescence light (at 460 nm); Isubstrate and Isubstrate+3CLpro are supposed to give the lowest and the highest intensity, respectively, where the substrate is a peptide labeled by a quencher and fluorophore at its N- and C-termini (as shown in FIG. 1). Specifically, the fluorescence of Edans in the C-terminal of the peptide (Dabcyl-[…]-Edans; the cleavage site is in between the amino acids Q and S) is quenched by the Dabcyl in the N-terminus in the absence of the 3CL^pro enzymatic cleavage. Norvancomycin (Nv) is the interface blocker here while the FDA drugs boceprevir (Bc) and GC376 (in its clinical trials) are the active-site inhibitors. The results are shown by the average value of two replicates.
The FRET-based assay was designed for 3CL^pro activity assay and explained in FIG. 1. The 3CL^pro enzyme assay was developed in a 96-well black microplate with a total volume of 50 μL. 30 μL of 0.5 ng/μL enzyme in a reaction buffer was added into each well, followed by the addition of 10 μL substrate solution to a final concentration of 40 μM. Enzymatic reaction gave fluorescence whose intensity was measured after incubation for 4 hours at 37° C. with slow shaking in a microtiter plate reading fluorimeter (BioTek Synergy HTX multi-mode reader, VT, US) with Ex=340 nm/Em=460 nm. […]

Row | Structure (SMILES) | cell survival rate (Vero E6 cells; 1.8 μM nelfinavir) | cell survival rate (Vero E6 cells; 3.6 μM nelfinavir) | CC50 (Cytotoxicity assay) | suppression of SARS-CoV2 replication ([1]; 0.9 μM nelfinavir) | suppression of SARS-CoV2 replication ([1]; 1.8 μM nelfinavir) | suppression of SARS-CoV2 replication ([1]; 1.8 μM nelfinavir together with 37.5 μM norvancomycin) | suppression of SARS-CoV2 replication ([1]; 3.6 μM nelfinavir) | suppression of SARS-CoV2 replication ([1]; 3.6 μM nelfinavir and 37.5 μM norvancomycin) | CC50 (Vero E6 cells) | extra 3CL^pro inhibition vs GC376 alone (3CL^pro; 25 μM norvancomycin in combination with 16 nM GC376) | additional 3CL^pro inhibition (3CL^pro; 50 μM norvancomycin in combination with 25 μM boceprevir) | elevation of 3CL^pro inhibition (3CL^pro; co-used with 25 μM boceprevir at molar ratio 1:1) | suppression of SARS-CoV2 replication ([1]; 40 μM norvancomycin)
1 | Cc1c(O)cccc1C(=O)N[C@@H](CSc1ccccc1)[C@H](O)CN1C[C@H]2CCCC[C@H]2C[C@H]1C(=O)NC(C)(C)C [nelfinavir] | 84% | 69% | 8.26 ± 0.495 µM | 41% | 35% | 100% | 100% | 100% |  |  |  |  | 
2 | CC(C)C[C@@H](N)C(=O)N[C@H]1C(=O)N[C@@H](CC(N)=O)C(=O)N[C@H]2C(=O)N[C@H]3C(=O)N[C@H](C(=O)N[C@H](C(=O)O)c4cc(O)cc(O)c4-c4cc3ccc4O)[C@H](O)c3ccc(c(Cl)c3)Oc3cc2cc(c3O[C@@H]2O[C@H](CO)[C@@H](O)[C@H](O)[C@H]2O[C@H]2C[C@](C)(N)[C@H](O)[C@H](C)O2)Oc2ccc(cc2Cl)[C@H]1O [Norvancomycin] |  |  |  |  |  |  |  |  | > 100 µM | 10% | 17% | around 10% | 4%
